Experimental data from article PMC11062922 (Nature Chemical Biology, 2023).

Key:
AAK1 = target: T1, AAK1 (Homo sapiens, UniProt Q2M2I8); assay: Kinobeads two-dose competition binding: AAK1; settings: for CATDS: sheet CATDS matrix 2, Gene Name AAK1;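 on all read-outs here: kinobeads competition pulldown from cell lysate, compound preincubated 45 min at 4 °C, bead-bound protein measured by label-free mass spectrometry against DMSO vehicle control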
T1 construct: to maximize the representation of endogenous proteins; endogenous in cells
T1 sequence (Q2M2I8 whole entry): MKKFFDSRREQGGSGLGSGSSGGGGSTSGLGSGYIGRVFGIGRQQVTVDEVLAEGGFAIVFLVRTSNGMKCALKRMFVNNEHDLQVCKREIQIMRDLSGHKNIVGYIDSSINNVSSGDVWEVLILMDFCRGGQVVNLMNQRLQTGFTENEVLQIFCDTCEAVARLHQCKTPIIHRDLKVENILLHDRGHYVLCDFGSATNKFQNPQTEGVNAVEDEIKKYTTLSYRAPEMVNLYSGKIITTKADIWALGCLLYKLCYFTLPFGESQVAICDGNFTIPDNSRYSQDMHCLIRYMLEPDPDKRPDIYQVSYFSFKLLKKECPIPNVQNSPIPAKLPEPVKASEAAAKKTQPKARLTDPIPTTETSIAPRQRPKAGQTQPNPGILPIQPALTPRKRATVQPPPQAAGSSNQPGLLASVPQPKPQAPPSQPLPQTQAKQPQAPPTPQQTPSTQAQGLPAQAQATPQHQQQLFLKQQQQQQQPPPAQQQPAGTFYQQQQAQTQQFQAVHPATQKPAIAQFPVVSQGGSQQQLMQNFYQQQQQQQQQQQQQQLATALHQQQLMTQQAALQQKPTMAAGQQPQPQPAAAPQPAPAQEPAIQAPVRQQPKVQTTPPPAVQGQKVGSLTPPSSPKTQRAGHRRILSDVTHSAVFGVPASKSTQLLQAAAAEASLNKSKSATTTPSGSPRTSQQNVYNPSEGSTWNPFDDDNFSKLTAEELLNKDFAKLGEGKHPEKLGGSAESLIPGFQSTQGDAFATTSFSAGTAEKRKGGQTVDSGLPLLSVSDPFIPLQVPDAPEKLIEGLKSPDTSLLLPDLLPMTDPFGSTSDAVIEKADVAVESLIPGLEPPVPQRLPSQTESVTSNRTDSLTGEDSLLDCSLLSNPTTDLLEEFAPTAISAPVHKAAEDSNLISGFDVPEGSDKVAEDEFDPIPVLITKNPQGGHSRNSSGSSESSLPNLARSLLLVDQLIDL

ABL2 = target: T2, ABL2 (Homo sapiens, UniProt P42684); assay: Kinobeads two-dose competition binding: ABL2; settings: sheet CATDS matrix 2; Gene Name ABL2
T2 construct: endogenous in cells
T2 sequence (P42684 whole entry): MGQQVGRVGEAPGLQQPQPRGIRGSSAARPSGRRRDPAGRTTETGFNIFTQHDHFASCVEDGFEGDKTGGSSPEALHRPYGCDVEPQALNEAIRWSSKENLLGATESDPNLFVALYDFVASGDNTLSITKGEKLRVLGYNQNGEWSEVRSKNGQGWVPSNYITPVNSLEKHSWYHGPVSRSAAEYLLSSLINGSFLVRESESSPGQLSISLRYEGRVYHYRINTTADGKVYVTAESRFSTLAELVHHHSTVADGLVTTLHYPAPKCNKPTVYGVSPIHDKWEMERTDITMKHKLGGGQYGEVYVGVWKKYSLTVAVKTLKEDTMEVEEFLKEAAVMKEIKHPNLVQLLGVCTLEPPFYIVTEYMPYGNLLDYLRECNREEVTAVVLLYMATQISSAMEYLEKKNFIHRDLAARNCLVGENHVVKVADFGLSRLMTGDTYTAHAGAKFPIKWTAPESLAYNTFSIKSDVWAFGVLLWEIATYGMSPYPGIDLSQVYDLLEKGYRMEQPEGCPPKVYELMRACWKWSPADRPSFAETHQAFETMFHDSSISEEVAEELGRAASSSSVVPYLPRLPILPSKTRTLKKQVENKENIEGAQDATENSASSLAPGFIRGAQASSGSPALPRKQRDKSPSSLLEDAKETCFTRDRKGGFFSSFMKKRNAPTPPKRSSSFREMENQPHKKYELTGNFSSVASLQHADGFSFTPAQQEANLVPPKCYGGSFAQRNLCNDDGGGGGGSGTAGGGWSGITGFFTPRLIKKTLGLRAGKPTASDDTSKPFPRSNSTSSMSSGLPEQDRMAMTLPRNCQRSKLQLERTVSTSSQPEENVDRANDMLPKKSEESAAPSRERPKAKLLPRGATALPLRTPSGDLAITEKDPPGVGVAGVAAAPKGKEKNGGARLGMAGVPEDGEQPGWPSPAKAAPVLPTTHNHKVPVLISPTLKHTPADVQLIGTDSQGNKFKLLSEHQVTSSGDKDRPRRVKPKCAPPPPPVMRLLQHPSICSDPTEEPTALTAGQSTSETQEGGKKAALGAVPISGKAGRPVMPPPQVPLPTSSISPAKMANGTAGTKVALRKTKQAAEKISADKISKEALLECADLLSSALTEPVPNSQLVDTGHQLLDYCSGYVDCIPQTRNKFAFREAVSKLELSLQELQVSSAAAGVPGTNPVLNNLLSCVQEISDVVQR

ACAD11 = target: T3, ACAD11 (Homo sapiens, UniProt Q709F0); assay: Kinobeads two-dose competition binding: ACAD11; settings: sheet CATDS matrix 2; Gene Name ACAD11
T3 construct: endogenous in cells
T3 sequence (Q709F0 1-780): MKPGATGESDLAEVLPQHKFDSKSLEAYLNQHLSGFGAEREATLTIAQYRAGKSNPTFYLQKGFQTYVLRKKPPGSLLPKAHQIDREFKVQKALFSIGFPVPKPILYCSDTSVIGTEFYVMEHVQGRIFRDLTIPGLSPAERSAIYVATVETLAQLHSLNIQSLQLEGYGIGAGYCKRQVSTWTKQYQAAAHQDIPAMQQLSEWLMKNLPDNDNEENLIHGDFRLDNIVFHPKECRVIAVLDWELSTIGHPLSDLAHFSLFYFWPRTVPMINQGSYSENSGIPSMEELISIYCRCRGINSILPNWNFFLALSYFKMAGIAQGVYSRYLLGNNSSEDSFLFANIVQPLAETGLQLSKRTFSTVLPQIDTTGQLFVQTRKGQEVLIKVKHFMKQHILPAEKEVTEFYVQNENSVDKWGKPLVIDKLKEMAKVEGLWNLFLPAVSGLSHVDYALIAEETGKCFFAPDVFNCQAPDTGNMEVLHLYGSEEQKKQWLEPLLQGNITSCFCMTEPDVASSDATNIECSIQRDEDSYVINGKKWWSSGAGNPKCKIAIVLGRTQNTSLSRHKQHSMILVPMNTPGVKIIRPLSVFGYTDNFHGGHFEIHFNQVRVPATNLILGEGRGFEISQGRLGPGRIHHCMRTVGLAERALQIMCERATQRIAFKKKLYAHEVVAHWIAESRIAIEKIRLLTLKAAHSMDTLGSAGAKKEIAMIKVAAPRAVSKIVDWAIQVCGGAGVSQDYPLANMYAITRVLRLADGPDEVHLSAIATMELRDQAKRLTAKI

ABL1 = ABL1 (Homo sapiens, UniProt P00519); assay: Kinobeads two-dose competition binding: ABL1; settings: sheet CATDS matrix 2; Gene Name ABL1
ABL1, sequence (P00519 28-1130 limits assumed): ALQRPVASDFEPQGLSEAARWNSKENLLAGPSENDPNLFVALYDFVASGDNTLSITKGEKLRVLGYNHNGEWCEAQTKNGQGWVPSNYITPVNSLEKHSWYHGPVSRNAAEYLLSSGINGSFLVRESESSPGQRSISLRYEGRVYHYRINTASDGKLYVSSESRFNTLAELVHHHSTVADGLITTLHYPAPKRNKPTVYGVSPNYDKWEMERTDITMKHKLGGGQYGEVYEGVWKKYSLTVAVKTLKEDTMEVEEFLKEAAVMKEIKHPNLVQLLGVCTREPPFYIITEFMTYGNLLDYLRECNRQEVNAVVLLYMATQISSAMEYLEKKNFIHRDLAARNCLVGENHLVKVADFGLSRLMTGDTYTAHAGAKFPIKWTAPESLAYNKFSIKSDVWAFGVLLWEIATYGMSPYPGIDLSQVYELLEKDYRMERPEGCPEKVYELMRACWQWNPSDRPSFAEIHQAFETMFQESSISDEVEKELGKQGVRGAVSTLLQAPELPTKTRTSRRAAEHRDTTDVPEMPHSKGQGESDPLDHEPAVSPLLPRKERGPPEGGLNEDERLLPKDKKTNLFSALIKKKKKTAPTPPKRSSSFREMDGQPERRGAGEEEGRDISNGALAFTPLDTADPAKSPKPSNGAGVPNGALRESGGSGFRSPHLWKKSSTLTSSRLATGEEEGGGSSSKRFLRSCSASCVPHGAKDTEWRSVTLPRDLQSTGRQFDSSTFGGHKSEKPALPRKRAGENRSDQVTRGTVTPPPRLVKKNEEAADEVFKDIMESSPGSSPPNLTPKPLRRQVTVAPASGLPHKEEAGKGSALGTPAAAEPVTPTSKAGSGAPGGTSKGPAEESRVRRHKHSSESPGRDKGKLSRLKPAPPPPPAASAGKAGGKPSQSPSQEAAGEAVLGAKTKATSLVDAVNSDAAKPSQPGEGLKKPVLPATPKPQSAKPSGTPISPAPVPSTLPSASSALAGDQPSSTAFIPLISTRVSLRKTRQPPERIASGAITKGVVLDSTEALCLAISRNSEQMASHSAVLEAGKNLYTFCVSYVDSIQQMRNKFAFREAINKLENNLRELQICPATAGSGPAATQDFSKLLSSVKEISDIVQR

ACOX1 = target: T4, ACOX1 (Homo sapiens, UniProt Q15067); assay: Kinobeads two-dose competition binding: ACOX1; settings: for CATDS: sheet CATDS matrix 2, Gene Name ACOX1;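 on all read-outs here: competition of compounds with immobilized broad-spectrum kinase inhibitor beads in cell lysate at 100 and 1,000 nM, 45 min at 4 °C, bead-bound protein quantified by label-free MS versus DMSO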
T4 construct: endogenous in cells
T4 sequence (Q15067 1-660): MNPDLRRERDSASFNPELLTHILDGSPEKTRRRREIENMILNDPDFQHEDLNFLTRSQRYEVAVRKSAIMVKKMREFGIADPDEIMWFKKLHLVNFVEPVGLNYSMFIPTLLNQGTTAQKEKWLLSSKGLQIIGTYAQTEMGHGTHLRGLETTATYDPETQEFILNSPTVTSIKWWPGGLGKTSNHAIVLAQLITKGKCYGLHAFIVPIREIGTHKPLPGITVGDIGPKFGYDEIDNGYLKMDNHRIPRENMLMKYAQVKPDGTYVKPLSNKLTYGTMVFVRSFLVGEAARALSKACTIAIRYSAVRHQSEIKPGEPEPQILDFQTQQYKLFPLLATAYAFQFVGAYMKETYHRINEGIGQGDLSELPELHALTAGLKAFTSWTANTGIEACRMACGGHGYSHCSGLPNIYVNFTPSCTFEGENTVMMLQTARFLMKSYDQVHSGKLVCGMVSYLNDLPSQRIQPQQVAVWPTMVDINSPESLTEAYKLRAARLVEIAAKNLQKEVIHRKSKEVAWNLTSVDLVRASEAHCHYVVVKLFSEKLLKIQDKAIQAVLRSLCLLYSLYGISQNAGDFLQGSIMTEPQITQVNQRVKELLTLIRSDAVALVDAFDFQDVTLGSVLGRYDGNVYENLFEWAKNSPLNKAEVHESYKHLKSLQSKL

COc1cc(Nc2ccnc3ccc(Br)cc23)cc(OC)c1OC [CA93.0]
0: CATDS (AAK1) | CATDS (ABL2) | CATDS (ACAD11) | CATDS (ABL1) | CATDS (ACOX1)

COc1cc2nc(-c3cc(F)ccc3O)nc(N[C@@H]3CNC[C@H]3C(C)(C)O)c2cc1OC [CCT241533]
0: CATDS (AAK1) | CATDS (ABL2) | CATDS (ACAD11) | CATDS (ABL1) | CATDS (ACOX1)

COc1cc(Nc2cnc(C#N)c(O[C@H](C)CN(C)C)n2)ncc1-c1cnn(C)c1 [CCT244747]
0: CATDS (AAK1) | CATDS (ABL2) | CATDS (ACAD11) | CATDS (ABL1) | CATDS (ACOX1)

COc1cc2nccc(Oc3ccc(NC(=O)C4(C(=O)Nc5ccc(F)cc5)CC4)cc3)c2cc1OC [Cabozantinib, reference compound]
0: CATDS (AAK1) | CATDS (ABL2) | CATDS (ACAD11) | CATDS (ABL1) | CATDS (ACOX1)

Cc1cc(Nc2ncc(Cl)c(Nc3ccccc3S(=O)(=O)C(C)C)n2)c(OC(C)C)cc1C1CCNCC1 [Ceritinib, reference compound]
0: CATDS (AAK1) | CATDS (ABL2) | CATDS (ACAD11) | CATDS (ABL1) | CATDS (ACOX1)

O=C(c1ccc(F)c(F)c1Nc1ccc(I)cc1F)N1CC(O)([C@@H]2CCCCN2)C1 [Cobimetinib, reference compound]
0: CATDS (AAK1) | CATDS (ABL2) | CATDS (ACAD11) | CATDS (ABL1) | CATDS (ACOX1)

Cc1cn(-c2cc(NC(=O)c3ccc4c(c3)CN(c3cncnc3)C[C@@H]4C)cc(C(F)(F)F)c2)cn1 [Compound D2202-1]
0: CATDS (AAK1) | CATDS (ABL2) | CATDS (ACAD11) | CATDS (ABL1) | CATDS (ACOX1)

COc1c(OCCCN2CCOCC2)ccc2c1N=C(NC(=O)c1cnc(N)nc1)N1CCN=C21 [Copanlisib, reference compound]
0: CATDS (AAK1) | CATDS (ABL2) | CATDS (ACAD11) | CATDS (ABL1) | CATDS (ACOX1)

CCN1CCN(Cc2ccc(C(=O)Nc3ccc(C)c(Oc4ccc5c(c4)CC(=O)N5)c3)cc2C(F)(F)F)CC1 [DDR1-in-1]
0: CATDS (AAK1) | CATDS (ABL2) | CATDS (ACAD11) | CATDS (ABL1) | CATDS (ACOX1)

Cn1cc(C2=C(c3cn(C4CCN(Cc5ccccn5)CC4)c4ccccc34)C(=O)NC2=O)c2ccccc21 [Enzastaurin, reference compound]
0: CATDS (AAK1) | CATDS (ABL2) | CATDS (ACAD11) | CATDS (ABL1) | CATDS (ACOX1)

CN(C)C(=O)/C(C#N)=C/c1ccc(-c2nc3cnc4[nH]ccc4c3n2C2CCCCC2)o1 [FM-381]
0: CATDS (AAK1) | CATDS (ABL2) | CATDS (ACAD11) | CATDS (ABL1) | CATDS (ACOX1)
> 1000 nM: potency estimated from few doses (AAK1; sheet "Kinobeads Drugmatrix - all", unit inferred, same values below 1000 recur in sheet "nanomolar", read-out: Kinobeads Drugmatrix - all: apparent Kd, AAK1)

O=S(=O)(c1cccc2cnccc12)N1CCCNCC1 [Fasudil, reference compound]
0: CATDS (AAK1) | CATDS (ABL2) | CATDS (ACAD11) | CATDS (ABL1) | CATDS (ACOX1)

COc1cc(Nc2ncc(F)c(Nc3ccc4c(n3)N(COP(=O)(O)O)C(=O)C(C)(C)O4)n2)cc(OC)c1OC [Fostamatinib, reference compound]
0: CATDS (AAK1) | CATDS (ABL2) | CATDS (ACAD11) | CATDS (ABL1) | CATDS (ACOX1)

Fc1ccc(-c2nc3n(c2-c2ccncc2)CCS3)cc1 [GI98581X]
0: CATDS (AAK1) | CATDS (ABL2) | CATDS (ACAD11) | CATDS (ABL1) | CATDS (ACOX1)

COc1ccc2ncnc(Nc3ccc(OCc4ccccc4)cc3)c2c1 [GI261520A]
0: CATDS (AAK1) | CATDS (ABL2) | CATDS (ACAD11) | CATDS (ABL1) | CATDS (ACOX1)

Oc1ccc2ncnc(Nc3ccc(OCc4ccccc4)cc3)c2c1 [GI262866A]
0.07628: CATDS (ACOX1)
830 nM: potency estimated from few doses (ACOX1; sheet "Kinobeads Drugmatrix -nanomolar" (only nanomolar interactions), read-out: Kinobeads Drugmatrix -nanomolar: apparent Kd, ACOX1)
0: CATDS (AAK1) | CATDS (ABL2) | CATDS (ACAD11) | CATDS (ABL1)

O=C1Nc2ccccc2/C1=C1\CCc2cc(O)ccc21 [GR105659X]
0: CATDS (AAK1) | CATDS (ABL2) | CATDS (ACAD11) | CATDS (ABL1) | CATDS (ACOX1)

c1ccc(Cc2nc3ccc(Nc4ncnc5ccccc45)cc3[nH]2)cc1 [GR269666A_KCGS]
0: CATDS (AAK1) | CATDS (ABL2) | CATDS (ACAD11) | CATDS (ABL1) | CATDS (ACOX1)

CNS(=O)(=O)c1ccc(N(C)C)c(Nc2ncnc3cc(OC)c(OC)cc23)c1 [GSK114]
0: CATDS (AAK1) | CATDS (ABL2) | CATDS (ACAD11) | CATDS (ABL1) | CATDS (ACOX1)

CC1=C(C(=O)Nc2ccc3[nH]ncc3c2)C(c2ccc(F)cc2)NC(=O)N1 (centres unmarked) [GSK180736A]
0: CATDS (AAK1) | CATDS (ABL2) | CATDS (ACAD11) | CATDS (ABL1) | CATDS (ACOX1)

CN(C)C(=O)O[C@H]1CN[C@H](C#Cc2cc3ncnc(Nc4ccc(OCc5cccc(F)c5)c(Cl)c4)c3s2)C1 [GSK182497A]
0: CATDS (AAK1) | CATDS (ABL2) | CATDS (ACAD11) | CATDS (ABL1) | CATDS (ACOX1)

Cc1cnc(N)c(/C=C/c2cncc(C(=O)NCCc3ccc(Cl)cc3Cl)c2)c1 [GSK190937A]
0: CATDS (AAK1) | CATDS (ABL2) | CATDS (ACAD11) | CATDS (ABL1) | CATDS (ACOX1)

CCNC(=O)O[C@H]1CN[C@H](C#Cc2cc3ncnc(Nc4ccc(OCc5cccc(F)c5)c(Cl)c4)c3s2)C1 [GSK192082A]
0: CATDS (AAK1) | CATDS (ABL2) | CATDS (ACAD11) | CATDS (ABL1) | CATDS (ACOX1)

O=C(Nc1cccc(-c2nn3ncccc3c2-c2ccnc(Nc3ccccc3)n2)c1)c1c(F)cccc1F [GSK198271A]
0: CATDS (AAK1) | CATDS (ABL2) | CATDS (ACAD11) | CATDS (ABL1) | CATDS (ACOX1)

O=C(O[C@H]1CN[C@H](C#Cc2cc3ncnc(Nc4ccc5c(cnn5Cc5ccccc5)c4)c3s2)C1)N1CCOCC1 [GSK200398A_KCGS]
0: CATDS (AAK1) | CATDS (ABL2) | CATDS (ACAD11) | CATDS (ABL1) | CATDS (ACOX1)

COc1cc2ncn(-c3cc(OCC4CCCCC4)c(C(N)=O)s3)c2cc1OC [GSK204559A]
0: CATDS (AAK1) | CATDS (ABL2) | CATDS (ACAD11) | CATDS (ABL1) | CATDS (ACOX1)

COc1cc2ncn(-c3cc(OCC4CCCO4)c(C(N)=O)s3)c2cc1OC (centres unmarked) [GSK204607A]
0: CATDS (AAK1) | CATDS (ABL2) | CATDS (ACAD11) | CATDS (ABL1) | CATDS (ACOX1)

COc1ccc2nc(-c3cccc(C)n3)nc(Nc3ccncc3)c2c1 [GSK204919_KCGS]
0: CATDS (AAK1) | CATDS (ABL2) | CATDS (ACAD11) | CATDS (ABL1) | CATDS (ACOX1)

COc1cc2ncn(-c3cc(OCCc4ccccc4)c(C(N)=O)s3)c2cc1OC [GSK204925A]
0: CATDS (AAK1) | CATDS (ABL2) | CATDS (ACAD11) | CATDS (ABL1) | CATDS (ACOX1)

Cc1cccc(-c2cc(Nc3ccncc3)c3ccccc3n2)n1 [GSK223675A]
0: CATDS (AAK1) | CATDS (ABL2) | CATDS (ACAD11) | CATDS (ABL1) | CATDS (ACOX1)
